{"source": "patent US6984496B2", "about": "“Vitro assay for testing gabapentinoid activity” (Warner-Lambert Company, priority 2001, dated 2006)", "key": {"[1]": {"system": "rat mGluR5 mediated Erk-2 phosphorylation", "test": "mGluR5 mediated Erk phosphorylation in CHO-mGluR5 cells, Western blot with anti-pErk antibody", "type": "cell-based", "method": ". Products from treated cells were analyzed by Western blotting with anti-pErk antibody.\nCHO cells engineered to express mGluR5 (CHO-mGluR5 cells) were plated in 12-well tissue culture plates at a density of 20,000 cells/well and grown for 24 hours, followed by further culturing in serum free medium for 16 hours. CHO-mGluR5 cells were incubated in Krebs buffer for 30 minutes at which time 1 mM sodium pyruvate and 10 μ/mL glutamic-pyruric transaminase was added. […] . […] Proteins in cell extracts were separated by SDS-PAGE and transferred to nitrocellulose membrane. The membrane was blocked overnight at 4° C. with 4% BSA in Tris-buffered saline containing 0.2% (v/v) Tween 20 (TBST). The membrane was then incubated for 1 hour at room temperature (RT) with antiphospho MAP kinase antibody (1:1000 dilution) in 1% BSA and TBST, then washed with TBST followed by incubation with antirabbit IgG HRP antibody. After a final wash with TBST, the membrane was visualized using enhanced chemiluminescence reagents.\nActivation of Erk-1 and -2 by stimulating CHO-mGluR5 cells with 100 μM quisqualate was examined by using an antibody specific to phosphorylated Erk-1 and -2. As shown in FIG. 1 (Lane 1), there was little phosphorylated Erk-1 and -2 in unstimulated CHO cells. […] ."}, "[2]": {"system": "NK1 mediated Elk-1 transcription", "test": "NK1 mediated Elk-1 luciferase reporter assay in CHO-NK-1 cells stimulated with substance P", "details": "substance P 20 nM, 4 hours", "experimental": "CHO-NK-1 cells were seeded to plates and grown to confluency overnight. Lipofectamine transfection was performed on the confluent cells to insert Elk-1 and luciferase vectors necessary for a MAP kinase dependent reporter system. Prior to transfection, the cells were washed in OPTI media (Gibco). To each confluent well in a 24-well plate, 20 ng of Elk-1 and 200 ng of luciferase DNA vectors were added. In addition to the vectors, 1.5 μL of Lipofectamine Reagent (Gibco) and OPTI media (Gibco) were also added for a total transfection volume of 200 μL (a master mix was made prior to use). After a 3-hour incubation, the media was changed to F-12 growing media (500 μL/well) for an additional 3-hour incubation. After the second incubation, the media was changed again to DMEM (500 μL/well) for serum starvation and incubated overnight (all incubations at 37° C.).\nIn addition, lipofectamine transfection was performed on CHO-NK-1 confluent cells to insert a GAL4-Elk-1 fusion protein and luciferase vector using the methods described above.\nThe DMEM media was decanted off the plate, and the cells were washed with 500 μL of Kreb buffer. After the wash, 460 μL of Kreb buffer containing 2 mM sodium pyruvate was added to each well and incubated for 30 minutes at 37° C. Next, 20 μL of compound was added to each well at the desired concentration and incubated for another 30 minutes. […] Finally, the cells were stimulated with Substance-P (final concentration=20 nM), and the cells were incubated for 4 hours at 37° C. After the 4-hour incubation, the buffer was decanted off the plate, and the plate was washed twice with Dulbecco's-PBS. Cells were lysed with 100 μL per well of cell Lysis Buffer (Promega), and the plate was vortexed for 10 minutes. Finally, 10 μL of the cell lysate was transferred to a 96-well reader plate, and each well's luminescence was measured using a luminometer (the Promega Luciferase Reporter system was used)."}, "[3]": {"system": "PMA mediated Elk-1 transcription in CHO cells", "test": "PMA mediated Elk-1 reporter assay in CHO cells", "experimental": "(§2) PKC competent cells are stimulated with PMA, preferably in the range of 50 nM, to activate Erk-2. Activated Erk-2, as discussed above, activates Elk-1 which induces reporter gene expression. […] As above, cells may be incubated with the target compound before treatment with PMA."}, "[4]": {"system": "PMA mediated Erk-2 phosphorylation", "test": "PMA mediated Erk-2 phosphorylation in differentiated IMR-32 cells, Western blot", "type": "cell-based, human", "details": "30 minutes preincubation, PMA stimulation", "method": "[…]. Differentiated IMR-32 cells were pretreated with indicated concentrations of gabapentin for 30 minutes and then stimulated with PMA for 10 minutes. Products from treated cells were analyzed by Western blotting with anti-pErk antibody.\nIMR-32 cells were grown in MEM media (Gibco BRL, 11095-080), supplemented with 10% fetal bovine serum (Gibco BRL, 26140-087), 1% antibiotic-antimycotic (Gibco BRL, 15240-096), and 1% L-glutamine (Gibco BRL, 25030-032). Cells, grown to confluency, were differentiated for a period of 7 to 10 days, or longer, by adding 1 mM dibutyryl cAMP (Sigma D-0627) and 2.5 μM 5-bromo-2-deoxyuridine (Sigma B-9285) to the media. The differentiation media was fed continuously to cells until the cells were used in an experiment. Cells were divided into groups and preincubated for 30 minutes either in the presence or absence of indicated concentration of gabapentin then subsequently challenged with 50 nM PMA for […]. […]. Proteins in cell extracts were separated by SDS-PAGE and transferred to nitrocellulose membrane. The nitrocellulose membrane was blocked overnight at 4° C. with 4% BSA in Tris-buffered saline containing 0.2% (v/v) Tween 20 (TBST). The membrane was then incubated for 1 hour at RT with antiphospho MAP kinase antibody (1:1000 dilution) in 1% BSA and TBST, then washed with TBST followed by incubation with antirabbit IgG HRP antibody. […]"}, "[5]": {"system": "PMA mediated Elk-1 transcription in IMR-32 cells", "test": "PMA mediated Elk-1 reporter assay in IMR-32 cells", "details": "50 nM PMA", "experimental": "as §2"}, "Jun kinase": {"system": "Jun kinase", "test": "Jun kinase activation in CHO-NK-1 cells, Western blot with activation-specific antibodies", "type": "cell-based, Chinese Hamster", "details": "10 nM substance-P, data not shown", "from_the_text": "(§1) Since P38 and Jun kinases are closely related to MAP kinase, the effects of substance-P on these kinases was examined."}, "P38": {"system": "P38", "test": "P38 activation in CHO-NK-1 cells, Western blot with activation-specific antibodies", "type": "cell-based, Chinese Hamster", "details": "10 nM substance-P, data not shown", "from_the_text": "as §1"}, "MAP kinase": {"system": "MAP kinase", "test": "MAP kinase activation in CHO-NK-1 cells, Western blot with activation-specific antibodies", "type": "cell-based, Chinese Hamster", "details": "10 nM substance-P, data not shown"}}, "note": "Ends that are not written are not given here."}
{"molecule": "O=C(NOCC1CC1)c1ccc(F)c(F)c1Nc1ccc(I)cc1Cl", "note": "[PD 184352]", "values": [{"measurement": "effect on quisqualate activated Erk phosphorylation (positive control)", "setting": "[1]; CHO-mGluR5 cells, data not shown", "result": "block the effect of quisquolate"}, {"measurement": "inhibition of Elk-1 mediated luciferase activity elicited by substance P", "setting": "[2]", "result": "completely inhibited"}]}
{"molecule": "NCC1(CC(=O)O)CCCCC1", "note": "[gabapentin, 1-(aminomethyl) cyclohexaneacetic acid]", "values": [{"measurement": "effect on PMA activated reporter gene activity", "setting": "[3]", "result": "in a dose-dependent manner, reduced"}, {"measurement": "effect on PMA increased Erk-2 phosphorylation", "setting": "[4]", "result": "dose-dependently blocked"}, {"measurement": "effect on PMA-induced Elk-1 reporter gene expression", "setting": "[5]", "result": "dose-dependently decreased"}, {"measurement": "reduction of quisqualate activated phosphorylated Erk-2", "setting": "[1]; 100 μM compound preincubated 30 minutes, 100 μM quisqualate 5 minutes, CHO-mGluR5 cells", "result": 50, "unit": "%"}, {"measurement": "phosphorylated Erk-1 and -2 in the absence of quisqualate", "setting": "[1]; gabapentin treated CHO-mGluR5 cells, no quisqualate (Lane 3)", "result": "little or no phosphorylated Erk-1 and -2"}, {"measurement": "inhibition of Elk-1 mediated luciferase activity elicited by substance P", "setting": "[2]", "result": "dose dependent inhibition"}]}
{"molecule": "CC(C)C[C@H](CN)CC(=O)O", "note": "[pregabalin]", "values": [{"measurement": "inhibition of Elk-1 mediated luciferase activity elicited by substance P", "setting": "[2]", "result": "dose dependent inhibition"}]}
{"molecule": "substance-P: a tackykinin neuropeptide that acts through the NK1, NK2, and NK3 receptors (RPKPQQFFGLM-NH2; ends and bridges not checked; UniProt P20366 58-68, looked up)", "values": [{"measurement": "activation of Jun kinase", "setting": "Jun kinase", "result": "no effect"}, {"measurement": "activation of P38", "setting": "P38", "result": "no effect"}, {"measurement": "activation of MAP kinase", "setting": "MAP kinase", "result": "significantly activated"}]}
